Test results: EP0238060B1, “Cephalosporin derivatives, processes for their preparation and antibacterial agents” (Banyu Pharmaceutical Co., Ltd., priority 1986, dated 1987)
≈ marks a conversion by molar mass, not a printed value.

Legend:
Assay in all cases: In vitro antibacterial activity, agar plate dilution method (MIC)
Ps.aeruginosa AKR17 = format: cell-based; details: Pseudomonas aeruginosa; Ps.aeruginosa AKR17; Mueller Hinton agar, inoculum 10⁶ CFU/ml, 37°C, 16 hours; read-out: Minimum Inhibitory Concentration (MIC: µg/ml)
Protocol: (§1) The in vitro antibacterial activities of the compounds of the present invention against various microorganisms, were measured by the following agar plate dilution method. One platinum loopfull of each test microorganism incubated overnight in Mueller Hinton broth, was inoculated to Mueller Hinton agar (inoculum size: l0⁶ CFU/ml). Such culture media containing various antibiotics in various concentrations were prepared. After incubation at 37°C for l6 hours, the minimum inhibitory concentrations (MIC: µg/ml) were measured. As comparative compounds, Cefotaxime, Ceftazidime and the compounds of Reference Examples l to 4 were employed.

K.pneumoniae No. 42 = format: cell-based; details: Klebsiella pneumoniae; K.pneumoniae No. 42 (β-Lactamase-producing strain); Mueller Hinton agar, inoculum 10⁶ CFU/ml, 37°C, 16 hours; read-out: Minimum Inhibitory Concentration (MIC: µg/ml)
Protocol: as §1

P.vulgaris HX-19 = format: cell-based; details: Proteus vulgaris, HX19; P.vulgaris HX-19; Mueller Hinton agar, inoculum 10⁶ CFU/ml, 37°C, 16 hours; read-out: Minimum Inhibitory Concentration (MIC: µg/ml)
Protocol: as §1

E.coli NIHJ JC2 = format: cell-based; details: Escherichia coli, NIHJJC2; E.coli NIHJ JC2; Mueller Hinton agar, inoculum 10⁶ CFU/ml, 37°C, 16 hours; read-out: Minimum Inhibitory Concentration (MIC: µg/ml)
Protocol: as §1

S.marcescens IAM 1184 = format: cell-based; details: Serratia marcescens, IAM1184; S.marcescens IAM 1184; Mueller Hinton agar, inoculum 10⁶ CFU/ml, 37°C, 16 hours; read-out: Minimum Inhibitory Concentration (MIC: µg/ml)
Protocol: as §1

E.cloacae 963 = format: cell-based; details: Enterobacter cloacae; E.cloacae 963; Mueller Hinton agar, inoculum 10⁶ CFU/ml, 37°C, 16 hours; read-out: Minimum Inhibitory Concentration (MIC: µg/ml)
Protocol: as §1

P.vulgaris No. 33 = format: cell-based; details: Proteus vulgaris; P.vulgaris No. 33 (β-Lactamase-producing strain); Mueller Hinton agar, inoculum 10⁶ CFU/ml, 37°C, 16 hours; read-out: Minimum Inhibitory Concentration (MIC: µg/ml)
Protocol: as §1

S.aureus JS1 = format: cell-based; details: Staphylococcus aureus; S.aureus JS1 (β-Lactamase-producing strain); Mueller Hinton agar, inoculum 10⁶ CFU/ml, 37°C, 16 hours; read-out: Minimum Inhibitory Concentration (MIC: µg/ml)
Protocol: as §1

Ps.aeruginosa IFO3445 = format: cell-based; details: Pseudomonas aeruginosa; Ps.aeruginosa IFO3445; Mueller Hinton agar, inoculum 10⁶ CFU/ml, 37°C, 16 hours; read-out: Minimum Inhibitory Concentration (MIC: µg/ml)
Protocol: as §1

C.freundii GN346/16 = format: cell-based; details: Citrobacter freundii; C.freundii GN346/16; Mueller Hinton agar, inoculum 10⁶ CFU/ml, 37°C, 16 hours; read-out: Minimum Inhibitory Concentration (MIC: µg/ml)
Protocol: as §1

A.calcoaceticus No. 4 = format: cell-based; details: Acinetobacter calcoaceticus; A.calcoaceticus No. 4; Mueller Hinton agar, inoculum 10⁶ CFU/ml, 37°C, 16 hours; read-out: Minimum Inhibitory Concentration (MIC: µg/ml)
Protocol: as §1

K.pneumoniae PCI-602 = format: cell-based; details: Klebsiella pneumoniae, PCI602; K.pneumoniae PCI-602; Mueller Hinton agar, inoculum 10⁶ CFU/ml, 37°C, 16 hours; read-out: Minimum Inhibitory Concentration (MIC: µg/ml)
Protocol: as §1

E.coli CSH2 (RK1) = format: cell-based; details: Escherichia coli, 16 h, read-out: Minimum Inhibitory Concentration (MIC: µg/ml)
Protocol: as §1

E.coli GN5482 = format: cell-based; details: Escherichia coli; E.coli GN5482 (β-Lactamase-producing strain); Mueller Hinton agar, inoculum 10⁶ CFU/ml, 37°C, 16 hours; read-out: Minimum Inhibitory Concentration (MIC: µg/ml)
Protocol: as §1

S.marcescens No. 16-2 = format: cell-based; details: Serratia marcescens, NO.162; S.marcescens No. 16-2 (β-Lactamase-producing strain); Mueller Hinton agar, inoculum 10⁶ CFU/ml, 37°C, 16 hours; read-out: Minimum Inhibitory Concentration (MIC: µg/ml)
Protocol: as §1

K.oxytoca GN10650 = format: cell-based; details: Klebsiella oxytoca; K.oxytoca GN10650 (β-Lactamase-producing strain); Mueller Hinton agar, inoculum 10⁶ CFU/ml, 37°C, 16 hours; read-out: Minimum Inhibitory Concentration (MIC: µg/ml)
Protocol: as §1

E.coli CSH(RE45) = format: cell-based; details: Escherichia coli, 16 h, read-out: Minimum Inhibitory Concentration (MIC: µg/ml)
Protocol: as §1

C.freundii GN346 = format: cell-based; details: Citrobacter freundii; C.freundii GN346 (β-Lactamase-producing strain); Mueller Hinton agar, inoculum 10⁶ CFU/ml, 37°C, 16 hours; read-out: Minimum Inhibitory Concentration (MIC: µg/ml)
Protocol: as §1

E.cloacae Nek 39 = format: cell-based; details: Enterobacter cloacae, NEK39; E.cloacae Nek 39 (β-Lactamase-producing strain); Mueller Hinton agar, inoculum 10⁶ CFU/ml, 37°C, 16 hours; read-out: Minimum Inhibitory Concentration (MIC: µg/ml)
Protocol: as §1

M.morganii GN5407 = format: cell-based; details: Morganella morganii; M.morganii GN5407 (β-Lactamase-producing strain); Mueller Hinton agar, inoculum 10⁶ CFU/ml, 37°C, 16 hours; read-out: Minimum Inhibitory Concentration (MIC: µg/ml)
Protocol: as §1

S.aureus BB5703 = format: cell-based; details: Staphylococcus aureus; S.aureus BB5703; Mueller Hinton agar, inoculum 10⁶ CFU/ml, 37°C, 16 hours; read-out: Minimum Inhibitory Concentration (MIC: µg/ml)
Protocol: as §1

M.luteus ATCC9341 = format: cell-based; details: Micrococcus luteus; M.luteus ATCC9341; Mueller Hinton agar, inoculum 10⁶ CFU/ml, 37°C, 16 hours; read-out: Minimum Inhibitory Concentration (MIC: µg/ml)
Protocol: as §1

S.epidermidis IAM12012 = format: cell-based; details: Staphylococcus epidermidis; S.epidermidis IAM12012; Mueller Hinton agar, inoculum 10⁶ CFU/ml, 37°C, 16 hours; read-out: Minimum Inhibitory Concentration (MIC: µg/ml)
Protocol: as §1

S.aureus 209P NIHJ-JC1 = format: cell-based; details: Staphylococcus aureus; S.aureus 209P NIHJ-JC1; Mueller Hinton agar, inoculum 10⁶ CFU/ml, 37°C, 16 hours; read-out: Minimum Inhibitory Concentration (MIC: µg/ml)
Protocol: as §1

Ps.aeruginosa AK 109 = format: cell-based; details: Pseudomonas aeruginosa, AK109; Ps.aeruginosa AK 109; Mueller Hinton agar, inoculum 10⁶ CFU/ml, 37°C, 16 hours; read-out: Minimum Inhibitory Concentration (MIC: µg/ml)
Protocol: as §1

Ps.maltophilia GN 12873 = format: cell-based, Pseudomonas maltophilia; details: Stenotrophomonas maltophilia, GN12873; Ps.maltophilia GN 12873 (β-Lactamase-producing strain); Mueller Hinton agar, inoculum 10⁶ CFU/ml, 37°C, 16 hours; read-out: Minimum Inhibitory Concentration (MIC: µg/ml)
Protocol: as §1

Ps.cepacia 23 = format: cell-based, Pseudomonas cepacia; details: Burkholderia cepacia; Ps.cepacia 23; Mueller Hinton agar, inoculum 10⁶ CFU/ml, 37°C, 16 hours; read-out: Minimum Inhibitory Concentration (MIC: µg/ml)
Protocol: as §1

| Compound | MIC (Ps.aeruginosa AKR17) | MIC (K.pneumoniae No. 42) | MIC (P.vulgaris HX-19) | MIC (E.coli NIHJ JC2) | MIC (S.marcescens IAM 1184) | MIC (E.cloacae 963) | MIC (P.vulgaris No. 33) | MIC (S.aureus JS1) | MIC (Ps.aeruginosa IFO3445) | MIC (C.freundii GN346/16) | MIC (A.calcoaceticus No. 4) | MIC (K.pneumoniae PCI-602) | MIC (E.coli CSH2 (RK1)) | MIC (E.coli GN5482) | MIC (S.marcescens No. 16-2) | MIC (K.oxytoca GN10650) | MIC (E.coli CSH(RE45)) | MIC (C.freundii GN346) | MIC (E.cloacae Nek 39) | MIC (M.morganii GN5407) | further results |
| --- | --- | --- | --- | --- | --- | --- | --- | --- | --- | --- | --- | --- | --- | --- | --- | --- | --- | --- | --- | --- | --- |
| CO/N=C(\C(=O)N[C@@H]1C(=O)N2C(C(=O)O)=C(COC(C)=O)CS[C@H]12)c1csc(N)n1 [Cefotaxime, reference compound] | > 100 µg/mL | 0.05 µg/mL (≈ 0.11 µM) | < 0.006 µg/mL | 0.05 µg/mL (≈ 0.11 µM) | 0.05 µg/mL (≈ 0.11 µM) | 0.1 µg/mL (≈ 0.22 µM) | 0.025 µg/mL (≈ 0.0549 µM) | 25 µg/mL (≈ 54.9 µM) | 3.12 µg/mL (≈ 6.85 µM) | 0.1 µg/mL (≈ 0.22 µM) | 25 µg/mL (≈ 54.9 µM) | < 0.006 µg/mL | 0.05 µg/mL (≈ 0.11 µM) | 0.39 µg/mL (≈ 0.856 µM) | 25 µg/mL (≈ 54.9 µM) | 0.78 µg/mL (≈ 1.71 µM) | 0.2 µg/mL (≈ 0.439 µM) | 25 µg/mL (≈ 54.9 µM) | 3.12 µg/mL (≈ 6.85 µM) | 0.05 µg/mL (≈ 0.11 µM) | MIC (S.aureus BB5703): 3.12 µg/mL (≈ 6.85 µM); MIC (M.luteus ATCC9341): 0.05 µg/mL (≈ 0.11 µM); MIC (S.epidermidis IAM12012): 0.39 µg/mL (≈ 0.856 µM); MIC (S.aureus 209P NIHJ-JC1): 1.56 µg/mL (≈ 3.43 µM); MIC (Ps.aeruginosa AK 109): 12.5 µg/mL (≈ 27.4 µM); MIC (Ps.maltophilia GN 12873): > 100 µg/mL; MIC (Ps.cepacia 23): 6.25 µg/mL (≈ 13.7 µM) |
| CON=C(C(=O)NC1C(=O)N2C(C(=O)[O-])=C(C[n+]3ccc4c(O)cccc4c3)CS[C@H]12)c1csc(N)n1 (stereo partly drawn) [Reference Ex. 2, 7-[2-(2-aminothiazol-4-yl)-2-methoxyiminoacetamido]-3-(5-hydroxy-2-isoquinolinio)methyl-3-cephem-4-carboxylate, reference compound] | > 100 µg/mL | 0.1 µg/mL (≈ 0.185 µM) | < 0.006 µg/mL | 0.025 µg/mL (≈ 0.0462 µM) | 0.025 µg/mL (≈ 0.0462 µM) | 0.025 µg/mL (≈ 0.0462 µM) | 0.1 µg/mL (≈ 0.185 µM) | 6.25 µg/mL (≈ 11.6 µM) | 3.12 µg/mL (≈ 5.77 µM) | 0.1 µg/mL (≈ 0.185 µM) | 12.5 µg/mL (≈ 23.1 µM) | < 0.006 µg/mL | 0.025 µg/mL (≈ 0.0462 µM) | 0.2 µg/mL (≈ 0.37 µM) | 3.12 µg/mL (≈ 5.77 µM) | 12.5 µg/mL (≈ 23.1 µM) | 1.56 µg/mL (≈ 2.89 µM) | 6.25 µg/mL (≈ 11.6 µM) | 0.78 µg/mL (≈ 1.44 µM) | 0.025 µg/mL (≈ 0.0462 µM) | MIC (S.aureus BB5703): 3.12 µg/mL (≈ 5.77 µM); MIC (S.aureus 209P NIHJ-JC1): 0.39 µg/mL (≈ 0.721 µM); MIC (Ps.aeruginosa AK 109): 3.12 µg/mL (≈ 5.77 µM); MIC (Ps.maltophilia GN 12873): > 100 µg/mL; MIC (Ps.cepacia 23): 6.25 µg/mL (≈ 11.6 µM) |
| CON=C(C(=O)NC1C(=O)N2C(C(=O)[O-])=C(C[n+]3ccc4cccc(O)c4c3)CS[C@H]12)c1csc(N)n1 (stereo partly drawn) [Reference Ex. 3, 7-[2-(2-aminothiazol-4-yl)-2-methoxyiminoacetamido]-3-(8-hydroxy-2-isoquinolinio)methyl-3-cephem-4-carboxylate, reference compound] | > 100 µg/mL | 0.1 µg/mL (≈ 0.185 µM) | 0.0125 µg/mL (≈ 0.0231 µM) | 0.05 µg/mL (≈ 0.0925 µM) | 0.025 µg/mL (≈ 0.0462 µM) | 0.05 µg/mL (≈ 0.0925 µM) | 0.05 µg/mL (≈ 0.0925 µM) | 25 µg/mL (≈ 46.2 µM) | 12.5 µg/mL (≈ 23.1 µM) | 0.1 µg/mL (≈ 0.185 µM) | 25 µg/mL (≈ 46.2 µM) | < 0.006 µg/mL | 0.025 µg/mL (≈ 0.0462 µM) | 0.39 µg/mL (≈ 0.721 µM) | 3.12 µg/mL (≈ 5.77 µM) | 3.12 µg/mL (≈ 5.77 µM) | 0.39 µg/mL (≈ 0.721 µM) | 12.5 µg/mL (≈ 23.1 µM) | 0.78 µg/mL (≈ 1.44 µM) | 0.025 µg/mL (≈ 0.0462 µM) | MIC (S.aureus BB5703): 3.12 µg/mL (≈ 5.77 µM); MIC (S.aureus 209P NIHJ-JC1): 0.78 µg/mL (≈ 1.44 µM); MIC (Ps.aeruginosa AK 109): 50 µg/mL (≈ 92.5 µM); MIC (Ps.maltophilia GN 12873): > 100 µg/mL; MIC (Ps.cepacia 23): 6.25 µg/mL (≈ 11.6 µM) |
| CC(C)(ON=C(C(=O)NC1C(=O)N2C(C(=O)[O-])=C(C[n+]3ccc4c(O)cccc4c3)CSC12)c1csc(N)n1)C(=O)O (stereo not drawn) [Reference Ex. 4, sodium 7-[2-(2-aminothiazol-4-yl)-2-(l-carboxylato-l-methylethoxyimino)acetamido]-3-(5-hydroxy-2-isoquinolinio)methyl-3-cephem-4-carboxylate, reference compound] | > 100 µg/mL | 0.78 µg/mL | 0.0125 µg/mL | 0.78 µg/mL | 0.2 µg/mL | 0.78 µg/mL | 0.1 µg/mL | 100 µg/mL | 6.25 µg/mL | 1.56 µg/mL | 25 µg/mL | 0.2 µg/mL | 0.39 µg/mL | 6.25 µg/mL | 6.25 µg/mL | 0.39 µg/mL | 0.39 µg/mL | > 100 µg/mL | 12.5 µg/mL | 0.1 µg/mL | MIC (S.aureus BB5703): 100 µg/mL; MIC (S.aureus 209P NIHJ-JC1): 12.5 µg/mL; MIC (Ps.aeruginosa AK 109): 6.25 µg/mL; MIC (Ps.maltophilia GN 12873): 50 µg/mL; MIC (Ps.cepacia 23): 1.56 µg/mL |
